{"source": "patent US20240374879A1", "about": "“METHODS AND COMPOSITIONS TO REDUCE CELLULAR DEPOSITION, AND HYDROCEPHALUS SHUNT FAILURE” (Wayne State University, priority 2021, published 2024)", "key": {"Human astrocyte cells [1]": {"test_system": "Human astrocyte cells", "assay": "Cell counts of human astrocytes cultured on PDMS discs, GIT 27 as pre-, simultaneous or post-treatment", "assay_type": "cell-based", "details": "for number of cells compared to associated control: vs control; for % Change of average Cell Counts, GIT 27 vs DMSO treated vehicle: GIT 27 1000 μg/mL", "description": "PDMS Catheter Creation: Catheter samples were made by creating a polydimethylsiloxane (PDMS, silicone) solution, Sylgard 184 (Dow Corning), at a ratio of 10:1 elastomer to curing agent. This solution was then homogenized and placed into a degasser to remove bubbles. Once all the air bubbles were removed, 200 μL of the PDMS solution was pipetted into a 24 well plate to create flat disk samples for cell culturing. These samples were then degassed again to ensure were no bubbles in the disks and left for 48 hours to cure on a flat substrate.\nMedia Creation: A media stock solution was created by combining astrocyte media (ScienCell), supplement kit, 10 mL fetal bovine serum (FBS), 5 mL penicillin/streptomycin, and 5 mL astrocyte growth serum (ScienCell), and an additional 10 mL FBS (ScienCell). IL-1β and IL-10 were diluted to a concentration of 50,000 ng/mL and 100,000 ng/mL, respectively, in phosphate buffer solution (PBS, w/v). GIT 27 was dissolved in a dimethyl sulfoxide (DMSO) vehicle (Sigma-Aldrich) to a concentration of 20 mg/mL (w/v).\nMedia solutions for the different groups were made directly before each media change. Cytokines IL-1β or IL-10 were added to the media stock solution for a final concentration of 14.67 ng/mL. GIT 27 was added for a concentration of 1000 μg/mL in the media stock solution for our experimental group. […] Our vehicle group contained 50 μL/mL DMSO alone, which is proportional to the amount in the GIT 27 treated group. Concentrations were then made for evaluation of dose and time dependency (FIGS. 6A-6F).\nCell Culture: Human astrocyte cells were initially grown in T75 flasks with media changes every three days using basic astrocyte media and washed with Hanks Balanced Salt Solution without Calcium and Magnesium (Gibco). Once the flasks came to confluency, the cells were trypsinized using Trypsin-EDTA at 0.25% (Gibco) and seeded at a seeding density of 250,000 cells per well. These samples were broken up into three treatment groups: control, DMSO, and GIT 27 tested as a pre-treatment, simultaneous treatment, and post-treatment (FIGS. 6A-6F). Each group and treatment time were then either exposed to IL-1β or IL-10 separately at concentrations described for media creation.\nCell Count Collection: Images were taking using a microscope (Fisher Scientific) and microscope attachable digital camera following each media change on days 1, 5, 7, 9, 12, and 14. These images were taken at approximately the center of each 24 well plate well with an area of 5.9788 mm^2. Counts were obtained using the FIJI software by converting the images to 32-bit. Contrast was enhanced to the value of 0.5 and background was subtracted to a value of 10. Finally, the threshold was set to 23-70 to obtain the cell count of each image.\nStatistical Analysis: Three conditions were tested in this experiment, treatment group, treatment time, and IL B or IL10 exposure, with a total of 16 different samples tested with an n=five of replicates. The three treatment groups tested were a control, vehicle control (DMSO), and GIT 27 (G27). Each treatment group was tested as a pre-treatment (denoted Pre-), dose simultaneous to treatment (denoted Sim-), and post-treatment (denoted Post-) as time points with respect to shunt insertion represented by exposure to either IL-1β (IL1B) or IL-10 (IL10). Utilizing the abbreviations described here we combined these to allow for an easier understand of the results presented. An example of this can be control Pre-IL1B, DMSO Pre-IL1B, and G27 Pre-IL1B which represents the three treatment groups when used as a pre-treatment to IL-1β exposure."}, "Human astrocyte cells [2]": {"test_system": "Human astrocyte cells", "assay": "Delivery Method: immunofluorescence (DAPI, GFAP) of astrocytes, GIT 27 attached to PDMS or in suspension", "assay_type": "cell-based", "description": "Delivery Method: Following the nanodrop experiment, it was determined that the minimum concentration necessary to attach GIT 27 to the surface of the PDMS was 1000 μg/mL to display any attachment and release from the catheter. […] Using this concentration for sufficient surface coating, human astrocyte cells were cultured onto PDMS discs coated with GIT 27. Samples were also tested by adding GIT 27 at various concentrations in suspension within the cell culture media. Attached GIT 27 samples were conducted at concentrations 1000 and 3000 μg/mL, and for the in suspension concentrations 5, 50, and 1000 μg/mL in astrocyte media were used.\nImmunofluorescence was performed using glial fibrillary acidic protein (GFAP) and 4′,6-diamidino-2-phenylindole (DAPI) solution (ThermoFisher). GFAP primary and secondaries were diluted to a ratio of 1:1000 and 5:1000, respectfully, in 0.4% Triton-X in PBS (w/v). Samples were incubated for 24 hours in each solution. After rinsing the samples with PBS, the samples were incubated in a 1:1000 DAPI solution in 0.4% Triton X solution for 30 minutes. Samples were then imaged submerged in PBS using a confocal microscope at 20× magnification and analyzed using Imaris software."}, "Solubility of GIT 27": {"assay": "Solubility of GIT 27", "assay_type": "physicochemical"}, "[3]": {"test_system": "macrophage toll-like receptor (TLR) 4 and TLR 2/6 signaling pathway", "details": "cited from earlier work"}, "[4]": {"details": "1000 μg/mL GIT 27 in suspension, qualitative"}}, "data": [{"smiles": "O=C(O)CC1CC(c2ccccc2)=NO1", "note": "(stereo not shown) [GIT 27, 4,5-Dihydro-3-phenyl-5-isoxazoleacetic acid]", "values": [{"measurement": "cell count by treatment time", "setting": "Human astrocyte cells [1]; G27 Pre-IL1B compared to G27 Post-IL1B", "value": "significantly fewer"}, {"measurement": "cell count by treatment time", "setting": "Human astrocyte cells [1]; G27 Pre-IL1B compared to Sim-IL1B", "value": "insignificantly less"}, {"measurement": "cell count by treatment time", "setting": "Human astrocyte cells [1]; G27 Pre-IL10 compared to G27 Post-IL10", "value": "significantly fewer"}, {"measurement": "cell count by treatment time", "setting": "Human astrocyte cells [1]; G27 Sim-IL10 compared to G27 Post-IL10", "value": "significantly lower"}, {"measurement": "number of cells compared to associated control", "setting": "Human astrocyte cells [1]; Post-IL1B", "value": "not significantly different"}, {"measurement": "cell count, difference between the three treatment groups", "setting": "Human astrocyte cells [1]; Post-IL10", "value": "no effect"}, {"measurement": "% Change of average Cell Counts, GIT 27 vs DMSO treated vehicle", "setting": "Human astrocyte cells [1]; Post-Treatment (C), exposed to IL-1β", "value": 94.25, "unit": "%"}, {"measurement": "% Change of average Cell Counts, GIT 27 vs DMSO treated vehicle", "setting": "Human astrocyte cells [1]; Post-Treatment (C), exposed to IL-10", "value": "−9.74", "unit": "%"}, {"measurement": "cell count compared to DMSO", "setting": "Human astrocyte cells [1]; Pre-IL1B, vs DMSO Pre-IL1B", "value": "insignificantly lower"}, {"measurement": "cell count compared to control", "setting": "Human astrocyte cells [1]; Pre-IL1B, vs control Pre-IL1B", "value": "significantly lower"}, {"measurement": "% Change of average Cell Counts, GIT 27 vs DMSO treated vehicle", "setting": "Human astrocyte cells [1]; Pre-Treatment (A), exposed to IL-1β", "value": "−15.09", "unit": "%"}, {"measurement": "% Change of average Cell Counts, GIT 27 vs DMSO treated vehicle", "setting": "Human astrocyte cells [1]; Pre-Treatment (A), exposed to IL-10", "value": 22.97, "unit": "%"}, {"measurement": "number of cells compared to associated control", "setting": "Human astrocyte cells [1]; Sim-IL1B", "value": "not significantly different"}, {"measurement": "cell count, difference between the three treatment groups", "setting": "Human astrocyte cells [1]; Sim-IL10", "value": "no effect"}, {"measurement": "% Change of average Cell Counts, GIT 27 vs DMSO treated vehicle", "setting": "Human astrocyte cells [1]; Simultaneous Treatment (B), exposed to IL-1β", "value": 50.87, "unit": "%"}, {"measurement": "% Change of average Cell Counts, GIT 27 vs DMSO treated vehicle", "setting": "Human astrocyte cells [1]; Simultaneous Treatment (B), exposed to IL-10", "value": "−5.50", "unit": "%"}, {"measurement": "astrocyte cell bodies (GFAP) labeling compared to all other groups", "setting": "Human astrocyte cells [2]; [4]", "value": "lowest amount"}, {"measurement": "immunofluorescent total cell count (DAPI) labeling compared to all other groups", "setting": "Human astrocyte cells [2]; [4]", "value": "lowest amount"}, {"measurement": "GFAP levels compared to controls with no GIT 27 exposure", "setting": "Human astrocyte cells [2]; plasma etched samples with GIT 27 attached to the surface", "value": "increased levels"}, {"measurement": "solubility", "setting": "Solubility of GIT 27", "value": "only soluble in DMSO"}, {"measurement": "secretion of pro-inflammatory cytokines IL-1β, IL-10 and IFN-γ", "setting": "[3]", "value": "reduces"}, {"measurement": "TNF-α secretion", "setting": "[3]; macrophages", "value": "inhibits"}]}]}
